From publication PMC12461331, “Screening of Medicines for Malaria Venture Open Boxes Identifies Potent SARS-CoV‑2 Papain-like Protease (PL^pro) Inhibitors” (ACS Omega, 2025)
Where “and” joins values, the source holds several entries; their conditions need not be identical. Equal values may be shown once. Read-outs that look alike come from different tables or passages of the source.

Columns and labels:
SARS-CoV-2 PL^pro = SARS-CoV-2 PL^pro (Severe acute respiratory syndrome coronavirus 2, UniProt P0DTD1); format: biochemical
PL^pro = PL^pro (Severe acute respiratory syndrome coronavirus 2, UniProt P0DTD1); conditions: 20 μM compound, 5 μM enzyme, average of triplicates with SD
SARS-CoV-2 = conditions: Vero CCL-81 cells, 10 μM
Plasma stability = conditions: for half-life at 2 μM: female, BALB/c, mouse, plasma, pH 7.4
Kinetic solubility = conditions: 25 °C, kinetic from dmso stock
[1] = Human liver microsomal stability assay
[2] = Mouse liver microsomal stability assay; conditions: CD1, mouse, pH 7.4
[3] = Chromatographic distribution coefficient (eLogD7.4); conditions: pH 7.4
[4] = Parallel artificial membrane permeability assay (PAMPA)
[5] = PAMPA
[6] = human, microsomes
[7] = female, BALB/c, mouse, 1 h, 2 μM, pH 7.4
physchem [8] = conditions: pH 7.4
in vitro [9] = conditions: PAMPA
physchem [10] = conditions: 25 °C, kinetic from dmso stock
in vitro [11] = conditions: human, microsomes, pH 7.4
in vitro [12] = conditions: CD1, mouse, microsomes, pH 7.4
[13] = human, liver microsomes, pH 7.4

SMILES	ΔT m (PL^pro)	half-life at 2 μM (Plasma stability) [h]	permeability (in words) [5]	plasma stability remaining 60 min [7] [%]	chromatographic logD (physchem [8])	Papp at 5 h, 10 μM (in vitro [9]) [×10⁻⁶ cm/s]	solubility kinetic at 24 h (physchem [10]; pH 2, aqueous buffer) [µg/mL]	solubility kinetic at 24 h (physchem [10]; pH 7.4, aqueous buffer) [µg/mL]	microsomal CLint at 0.5 μM (in vitro [11]) [µL/min/mg]	microsomal CLint at 0.5 μM (in vitro [12]) [µL/min/mg]	half-life at 0.5 μM [1, 13] [min]	half-life at 0.5 μM ([2]; liver microsomes) [min]	other results
COc1ccc(CNC(=O)C2CCN(C(C)c3cccc4ccccc34)CC2)cc1 (centres unmarked) [MMV1634397]	6.26 °C and 6.3 ± 0.3 °C	7.22	–	–	–	–	–	–	–	–	–	–	inhibition of SARS-CoV-2 PL^pro (SARS-CoV-2 PL^pro): ≥ 80%; decrease of viral replication (viral load by RT-PCR) (SARS-CoV-2): over 50%; plasma stability remaining 60 min (Plasma stability; mouse plasma, 60 min): 54.08%; solubility kinetic at 24 h (Kinetic solubility; pH 2, aqueous buffer): > 24.6 µg/mL; solubility kinetic at 24 h (Kinetic solubility; pH 7.4, aqueous buffer): > 21.6 µg/mL; HLM CLint(mic) ([1]; human liver microsomes): 80.40 µL/min/mg; HLM T 1/2 ([1]; human liver microsomes): 34.48 min; microsomal CLint at 0.5 μM ([1]; human, microsomes, pH 7.4, HLM CLint(mic), human liver microsomes): 80 µL/min/mg; half-life at 0.5 μM ([1]; human, microsomes, pH 7.4, HLM T 1/2, human liver microsomes): 35 min; metabolic stability (in words) ([1]; liver microsomes): moderately stable; half-life at 0.5 μM ([2]; microsomes): 21.5 min; microsomal CLint at 0.5 μM ([2]; microsomes): 129 µL/min/mg; chromatographic logD [3]: 4.17; Papp at 5 h, 10 μM [4]: 1.07 ×10⁻⁶ cm/s; permeability (in words) [4]: medium to low permeable
COc1ccc(CNC(=O)C2CCN([C@H](C)c3ccccc3)CC2)cc1 [Compound 3]	0.06 °C and 0.06 ± 0.05 °C	–	highly permeable	83.80	3	2.35	> 22.1	> 22.3	12	94	231	29.5	metabolic stability (in words) [6]: improved stability
COc1ccc(CC(=O)NC2CCN([C@H](C)c3cccc4ccccc34)CC2)cc1 [Compound 6]	4.8 °C and 4.8 ± 0.1 °C	38.5	highly permeable	90.29	4.28	1.74	> 24.9	> 12.7	88.4	171	31.4	16.2	–
